# Where a SMILES comes first, the peptide text is derived from it. Bridges are numbered along the chain shown (N, C = ends). [ ]: non-standard residue; d: D form. The star is where a group is joined. hPhe(3-Cl-4-CF3) = N[C@@H](CCc1ccc(C(F)(F)F)c(Cl)c1)C(=O)O; NPrPhe(4-CF3) = CCCN[C@@H](Cc1ccc(C(F)(F)F)cc1)C(=O)O; NMeGly(cPent) = CN[C@H](C(=O)O)C1CCCC1; Pro(4,4-F2) = O=C(O)[C@@H]1CC(F)(F)CN1; Hyp = O=C(O)[C@@H]1C[C@@H](O)CN1; NMeL = CN[C@@H](CC(C)C)C(=O)O; Morpholide = C1CN(*)CCO1; NMeA = CN[C@@H](C)C(=O)O; Ac5c = NC1(C(=O)O)CCCC1; Aze = O=C(O)[C@@H]1CCN1; Ac4c = NC1(C(=O)O)CCC1; Sar = CNCC(=O)O
# Columns and labels:
# [1] = target: GDP-bound KRAS wild-type protein (Homo sapiens, UniProt P01116); experiment: Binding to KRAS by surface plasmon resonance (SPR), Single Cycle Kinetics; conditions: SPR Single Cycle Kinetics, GDP-bound KRAS wild-type protein, 1:1 binding model; read-out: KRAS KD
# [2] = target: GDP-bound NRAS wild-type protein (Homo sapiens, UniProt P01111); experiment: Binding to NRAS by surface plasmon resonance (SPR), Single Cycle Kinetics; conditions: SPR, GDP-bound NRAS wild-type protein vs GDP-bound KRAS wild-type protein
# [3] = target: GDP-bound HRAS wild-type protein (Homo sapiens, UniProt P01112); experiment: Binding to HRAS by surface plasmon resonance (SPR), Single Cycle Kinetics; conditions: SPR, GDP-bound HRAS wild-type protein vs GDP-bound KRAS wild-type protein
# Sequence of GDP-bound HRAS wild-type protein (P01112 whole entry): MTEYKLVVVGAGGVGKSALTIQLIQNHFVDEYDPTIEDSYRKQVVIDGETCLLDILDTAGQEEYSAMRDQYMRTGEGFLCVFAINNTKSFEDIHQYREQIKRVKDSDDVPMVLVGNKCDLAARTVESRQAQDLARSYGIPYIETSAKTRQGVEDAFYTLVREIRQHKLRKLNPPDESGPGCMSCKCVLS
# Sequence of GDP-bound KRAS wild-type protein (P01116 whole entry): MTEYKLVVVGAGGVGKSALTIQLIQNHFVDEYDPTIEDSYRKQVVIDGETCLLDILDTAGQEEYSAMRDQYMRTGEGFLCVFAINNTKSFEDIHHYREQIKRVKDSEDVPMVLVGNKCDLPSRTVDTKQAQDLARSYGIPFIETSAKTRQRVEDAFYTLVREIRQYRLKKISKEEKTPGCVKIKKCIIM
# Sequence of GDP-bound NRAS wild-type protein (P01111 whole entry): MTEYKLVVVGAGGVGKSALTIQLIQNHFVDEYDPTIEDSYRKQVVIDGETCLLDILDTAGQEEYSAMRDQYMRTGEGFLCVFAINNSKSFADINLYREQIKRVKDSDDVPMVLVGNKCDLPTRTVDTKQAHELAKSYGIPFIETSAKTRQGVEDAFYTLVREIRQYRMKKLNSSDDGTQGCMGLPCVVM
SMILES,Kd [1] [nM],NRAS/KRAS (ratio of KD value for NRAS to KD value for KRAS) [2],HRAS/KRAS (ratio of KD value for HRAS to KD value for KRAS) [3]
CCCN1C(=O)CN(C)C(=O)[C@@H]2CCN2C(=O)[C@H]([C@@H](C)CC)NC(=O)[C@H](CC(C)C)N(C)C(=O)C[C@@H](C(=O)N2CCOCC2)NC(=O)[C@H](C2CCCC2)N(C)C(=O)C2(CCC2)NC(=O)[C@@H]2C[C@@H](OCC)CN2C(=O)[C@H](CCc2ccc(C(F)(F)F)c(Cl)c2)NC(=O)CN(C)C(=O)[C@@H]1Cc1ccc(C(F)(F)F)cc1 [PP0342] ([NMeL]I[Aze][Sar][NPrPhe(4-CF3)][Sar][hPhe(3-Cl-4-CF3)][Hyp](Et)[Ac4c][NMeGly(cPent)]D-Morpholide; lactam N-11),1.7,B (a compound having 3 or more and less than 10 is denoted as B),B (a compound having 3 or more and less than 10 is denoted as B)
CCCN1C(=O)[C@@H]2CCN2C(=O)[C@H](C)N(C)C(=O)[C@H]([C@@H](C)CC)NC(=O)[C@H](CC(C)C)N(C)C(=O)C[C@@H](C(=O)N2CCOCC2)NC(=O)[C@H](C2CCCC2)N(C)C(=O)C2(CCCC2)NC(=O)[C@@H]2CCCN2C(=O)[C@H](CCc2ccc(C(F)(F)F)c(Cl)c2)NC(=O)CN(C)C(=O)[C@@H]1Cc1ccc(C(F)(F)F)cc1 [PP0343] ([NMeL]I[NMeA][Aze][NPrPhe(4-CF3)][Sar][hPhe(3-Cl-4-CF3)]P[Ac5c][NMeGly(cPent)]D-Morpholide; lactam N-11),1.3,C (A compound having a KD ratio of 0.1 or more and less than 3 is denoted as C),B (a compound having 3 or more and less than 10 is denoted as B)
CCCN1C(=O)[C@@H]2CCN2C(=O)[C@H](C)N(C)C(=O)[C@H]([C@@H](C)CC)NC(=O)[C@H](CC(C)C)N(C)C(=O)C[C@@H](C(=O)N2CCOCC2)NC(=O)[C@H](C2CCCC2)N(C)C(=O)C2(CCC2)NC(=O)[C@@H]2CCCN2C(=O)[C@H](CCc2ccc(C(F)(F)F)c(Cl)c2)NC(=O)CN(C)C(=O)[C@@H]1Cc1ccc(C(F)(F)F)cc1 [PP0344] ([NMeL]I[NMeA][Aze][NPrPhe(4-CF3)][Sar][hPhe(3-Cl-4-CF3)]P[Ac4c][NMeGly(cPent)]D-Morpholide; lactam N-11),1.1,C (A compound having a KD ratio of 0.1 or more and less than 3 is denoted as C),B (a compound having 3 or more and less than 10 is denoted as B)
"CCCN1C(=O)[C@@H]2CCN2C(=O)[C@H](C)N(C)C(=O)[C@H]([C@@H](C)CC)NC(=O)[C@H](CC(C)C)N(C)C(=O)C[C@@H](C(=O)N2CCOCC2)NC(=O)[C@H](C2CCCC2)N(C)C(=O)C2(CCCC2)NC(=O)[C@@H]2CC(F)(F)CN2C(=O)[C@H](CCc2ccc(C(F)(F)F)c(Cl)c2)NC(=O)CN(C)C(=O)[C@@H]1Cc1ccc(C(F)(F)F)cc1 [PP0345] ([NMeL]I[NMeA][Aze][NPrPhe(4-CF3)][Sar][hPhe(3-Cl-4-CF3)][Pro(4,4-F2)][Ac5c][NMeGly(cPent)]D-Morpholide; lactam N-11)",1.3,C (A compound having a KD ratio of 0.1 or more and less than 3 is denoted as C),B (a compound having 3 or more and less than 10 is denoted as B)
"CCCN1C(=O)[C@@H]2CCN2C(=O)[C@H](C)N(C)C(=O)[C@H]([C@@H](C)CC)NC(=O)[C@H](CC(C)C)N(C)C(=O)C[C@@H](C(=O)N2CCOCC2)NC(=O)[C@H](C2CCCC2)N(C)C(=O)C2(CCC2)NC(=O)[C@@H]2CC(F)(F)CN2C(=O)[C@H](CCc2ccc(C(F)(F)F)c(Cl)c2)NC(=O)CN(C)C(=O)[C@@H]1Cc1ccc(C(F)(F)F)cc1 [PP0346] ([NMeL]I[NMeA][Aze][NPrPhe(4-CF3)][Sar][hPhe(3-Cl-4-CF3)][Pro(4,4-F2)][Ac4c][NMeGly(cPent)]D-Morpholide; lactam N-11)",1.2,C (A compound having a KD ratio of 0.1 or more and less than 3 is denoted as C),B (a compound having 3 or more and less than 10 is denoted as B)
CCCN1C(=O)[C@@H]2CCN2C(=O)[C@H](C)N(C)C(=O)[C@H]([C@@H](C)CC)NC(=O)[C@H](CC(C)C)N(C)C(=O)C[C@@H](C(=O)N2CCOCC2)NC(=O)[C@H](C2CCCC2)N(C)C(=O)C2(CCCC2)NC(=O)[C@@H]2C[C@@H](OCC)CN2C(=O)[C@H](CCc2ccc(C(F)(F)F)c(Cl)c2)NC(=O)CN(C)C(=O)[C@@H]1Cc1ccc(C(F)(F)F)cc1 [PP0347] ([NMeL]I[NMeA][Aze][NPrPhe(4-CF3)][Sar][hPhe(3-Cl-4-CF3)][Hyp](Et)[Ac5c][NMeGly(cPent)]D-Morpholide; lactam N-11),0.36,C (A compound having a KD ratio of 0.1 or more and less than 3 is denoted as C),B (a compound having 3 or more and less than 10 is denoted as B)
CCCN1C(=O)[C@@H]2CCN2C(=O)[C@H](C)N(C)C(=O)[C@H]([C@@H](C)CC)NC(=O)[C@H](CC(C)C)N(C)C(=O)C[C@@H](C(=O)N2CCOCC2)NC(=O)[C@H](C2CCCC2)N(C)C(=O)C2(CCC2)NC(=O)[C@@H]2C[C@@H](OCC)CN2C(=O)[C@H](CCc2ccc(C(F)(F)F)c(Cl)c2)NC(=O)CN(C)C(=O)[C@@H]1Cc1ccc(C(F)(F)F)cc1 [PP0348] ([NMeL]I[NMeA][Aze][NPrPhe(4-CF3)][Sar][hPhe(3-Cl-4-CF3)][Hyp](Et)[Ac4c][NMeGly(cPent)]D-Morpholide; lactam N-11),0.38,C (A compound having a KD ratio of 0.1 or more and less than 3 is denoted as C),B (a compound having 3 or more and less than 10 is denoted as B)
CCCN1C(=O)[C@@H]2CCN2C(=O)CN(C)C(=O)[C@H]([C@@H](C)CC)NC(=O)[C@H](CC(C)C)N(C)C(=O)C[C@@H](C(=O)N2CCOCC2)NC(=O)[C@H](C2CCCC2)N(C)C(=O)C2(CCCC2)NC(=O)[C@@H]2CCCN2C(=O)[C@H](CCc2ccc(C(F)(F)F)c(Cl)c2)NC(=O)CN(C)C(=O)[C@@H]1Cc1ccc(C(F)(F)F)cc1 [PP0349] ([NMeL]I[Sar][Aze][NPrPhe(4-CF3)][Sar][hPhe(3-Cl-4-CF3)]P[Ac5c][NMeGly(cPent)]D-Morpholide; lactam N-11),0.73,C (A compound having a KD ratio of 0.1 or more and less than 3 is denoted as C),B (a compound having 3 or more and less than 10 is denoted as B)
CCCN1C(=O)[C@@H]2CCN2C(=O)CN(C)C(=O)[C@H]([C@@H](C)CC)NC(=O)[C@H](CC(C)C)N(C)C(=O)C[C@@H](C(=O)N2CCOCC2)NC(=O)[C@H](C2CCCC2)N(C)C(=O)C2(CCC2)NC(=O)[C@@H]2CCCN2C(=O)[C@H](CCc2ccc(C(F)(F)F)c(Cl)c2)NC(=O)CN(C)C(=O)[C@@H]1Cc1ccc(C(F)(F)F)cc1 [PP0350] ([NMeL]I[Sar][Aze][NPrPhe(4-CF3)][Sar][hPhe(3-Cl-4-CF3)]P[Ac4c][NMeGly(cPent)]D-Morpholide; lactam N-11),1.1,C (A compound having a KD ratio of 0.1 or more and less than 3 is denoted as C),B (a compound having 3 or more and less than 10 is denoted as B)
"CCCN1C(=O)[C@@H]2CCN2C(=O)CN(C)C(=O)[C@H]([C@@H](C)CC)NC(=O)[C@H](CC(C)C)N(C)C(=O)C[C@@H](C(=O)N2CCOCC2)NC(=O)[C@H](C2CCCC2)N(C)C(=O)C2(CCCC2)NC(=O)[C@@H]2CC(F)(F)CN2C(=O)[C@H](CCc2ccc(C(F)(F)F)c(Cl)c2)NC(=O)CN(C)C(=O)[C@@H]1Cc1ccc(C(F)(F)F)cc1 [PP0351] ([NMeL]I[Sar][Aze][NPrPhe(4-CF3)][Sar][hPhe(3-Cl-4-CF3)][Pro(4,4-F2)][Ac5c][NMeGly(cPent)]D-Morpholide; lactam N-11)",1.1,C (A compound having a KD ratio of 0.1 or more and less than 3 is denoted as C),B (a compound having 3 or more and less than 10 is denoted as B)
"CCCN1C(=O)[C@@H]2CCN2C(=O)CN(C)C(=O)[C@H]([C@@H](C)CC)NC(=O)[C@H](CC(C)C)N(C)C(=O)C[C@@H](C(=O)N2CCOCC2)NC(=O)[C@H](C2CCCC2)N(C)C(=O)C2(CCC2)NC(=O)[C@@H]2CC(F)(F)CN2C(=O)[C@H](CCc2ccc(C(F)(F)F)c(Cl)c2)NC(=O)CN(C)C(=O)[C@@H]1Cc1ccc(C(F)(F)F)cc1 [PP0352] ([NMeL]I[Sar][Aze][NPrPhe(4-CF3)][Sar][hPhe(3-Cl-4-CF3)][Pro(4,4-F2)][Ac4c][NMeGly(cPent)]D-Morpholide; lactam N-11)",0.82,C (A compound having a KD ratio of 0.1 or more and less than 3 is denoted as C),B (a compound having 3 or more and less than 10 is denoted as B)
CCCN1C(=O)[C@@H]2CCN2C(=O)CN(C)C(=O)[C@H]([C@@H](C)CC)NC(=O)[C@H](CC(C)C)N(C)C(=O)C[C@@H](C(=O)N2CCOCC2)NC(=O)[C@H](C2CCCC2)N(C)C(=O)C2(CCCC2)NC(=O)[C@@H]2C[C@@H](OCC)CN2C(=O)[C@H](CCc2ccc(C(F)(F)F)c(Cl)c2)NC(=O)CN(C)C(=O)[C@@H]1Cc1ccc(C(F)(F)F)cc1 [PP0353] ([NMeL]I[Sar][Aze][NPrPhe(4-CF3)][Sar][hPhe(3-Cl-4-CF3)][Hyp](Et)[Ac5c][NMeGly(cPent)]D-Morpholide; lactam N-11),0.47,C (A compound having a KD ratio of 0.1 or more and less than 3 is denoted as C),B (a compound having 3 or more and less than 10 is denoted as B)

# Reference: patent US20240158446A1, “CYCLIC COMPOUND HAVING SELECTIVE INHIBITORY ACTION ON KRAS OVER HRAS AND NRAS” (CHUGAI SEIYAKU KABUSHIKI KAISHA, priority 2021, published 2024)
